Results from US20170044150A1, “IDENTIFICATION OF COMPOUNDS WHICH INHIBIT ATG8-ATG3 PROTEIN-PROTEIN INTERACTION AND THEIR USE AS ANTIPARASITICAL AGENTS” (THE JOHNS HOPKINS UNIVERSITY, priority 2014, published 2017).
Where two headings read alike, the source gives them in different places. Values belong to the compound of their own block, whether it stands above or below them.

Columns and labels:
[1] = biological target: PfAtg8-PfAtg3 interaction (Plasmodium falciparum, UniProt Q8IJK2); format: binding, P. falciparum
[2] = test system: P. falciparum 3D7 blood stages; conditions: asterisk / PubChem reported values; read-out: IC50 Blood stage, derived from the literature; cited from earlier work
[3] = test system: PfAtg8-PfAtg3 interaction; assay: SPR protein-protein interaction assay, PfAtg8-PfAtg3 (VLS compounds); format: binding, P. falciparum; conditions: 500 μM
Method: Surface Plasmon Resonance (SPR) protein-protein interaction assay. All measurements were carried out on a BiaCore 3000 instrument. We used the previously described SPR competition assay to test inhibition of the PfAtg8-PfAtg3 and hLC3-hAtg3 interaction. The standard running buffer was 10 mM HEPES, 150 mM NaCl, 0.01% Tween 20, adjusted to pH 7.5. Prior to performing SPR assays, all solutions were sterile filtered and degassed for 1 h at room temperature. For small molecule inhibitor studies, the same running buffer was supplemented with 1% DMSO. All dose dependency measurements were carried out in triplicate and corrected for DMSO absorption effects using double referencing with interspersed blank injections and an untreated flow cell on the SPR chip and the SPR analysis software Scrubber 2.0 (BioLogics). For each interaction pair, a new CM5 SPR chip was used. To exclude surface decay during the experiment, positive control injections were interspersed every 12th injection. For all interaction studies, the Atg3 homologue was immobilized and the corresponding Atg8 partner was passed as an analyte over the chip in either the presence or absence of small molecule inhibitors, dissolved to 100 mM in 100% DMSO and tested at 500 μM final concentration. Prior to the immobilization of Atg3 to an SPR chip, a pH scouting from pH 6.0 to pH 4.0 in intervals of 0.5 pH units was carried out to determine the best pre-concentration conditions for immobilization. Briefly, flow cells of an SPR chip were activated using N-hydroxysuccinimide (NHS) and 1-ethyl-3-(3-dimethylaminopropyl)carbodiimide (EDC) for 7 min with a flow rate of 20 μl/min. For PfAtg3 immobilization, a solution of 50 μg/ml of PfAtg3 in 10 mM sodium acetate pH 5.0 was passed over one flow cell until >500 Response Units (RU) were captured. The same procedure was followed for the immobilization of hAtg3. Activated free binding sites on the chip were blocked using 1 M ethanolamine for an additional 7 min. All experiments were carried out at 25° C. with a 40 μl/min flow rate and 75 s contact time, followed by a 1 min dissociation time and a 25 μl regeneration injection of 2 M MgCl2.
The dose-response curves were used to determine the approximate concentration of analyte (PfAtg8 or hLC3) needed to obtain a particular response unit (RU), typically in the range of 100-150 RU's. A fixed amount of analyte was then passed over the chip resulting in at least 100-150 response units (RU) in the absence of small molecules.

P. falciparum 3D7 = assay: SYBR Green I growth inhibition assay, blood stage; format: cell-based; conditions: Plasmodium falciparum
Method: P. falciparum blood stage culturing. P. falciparum 3D7 and FCR3 cultures were maintained using modified, previously published methods at 37° C., 2% hematocrit of human red blood cells (Science 1976, 193, 673-675). Complete culture media consisted of sterile RPMI 1640 media (Life Technologies), supplemented with 10% human serum, 0.005% hypoxanthine, and buffered with final concentrations of 0.6% HEPES and 0.26% NaHCO3. The FCR3 strain was maintained at 3% CO2 and 5% O2, 92% N2 atmosphere, while the 3D7 strain was maintained at 5% CO2, 5% O2, 90% N2 atmosphere.
SYBR Green I growth inhibition assay. 10 μL of 10× compound diluted in RPMI 1640 media (Gibco) with a constant concentration of 1% DMSO was added to a 96 well plate (Costar), 90 μL of 1.5% ring stage, synchronized with 5% w/v sorbitol P. falciparum 3D7 parasites, 1% hematocrit, in culture media with 10% v/v human serum with 10 μg/mL gentamycin. Each compound concentration and 1% v/v DMSO controls were run in triplicate. Plates were incubated at 37° C. in 5% O2, 5% CO2 and 90% N2 for 72 hours. Plates were frozen, thawed, and incubated with 100-μL 2× SYBR green in lysis buffer (20 mM Tris pH 7.5, 5 mM EDTA, 0.008% Saponin, 0.08% TritonX-100) in the dark for at least one hour. Fluorescence was measured with a plate reader (HTS 7000, Perkin Elmer) at excitation/emission wavelengths of 485/535 nm.
Plasmodium parasite growth inhibition assay. P. falciparum 3D7 parasites were cultured as previously described (J Med Chem 57:4521-4531(2014)). Briefly, the parasites were cultured in 10% v/v human serum with 10 μg/mL gentamycin and synchronized with 5% w/v sorbitol. 1.5% ring stage parasites were added to 96 well plates (Costar) containing serial dilutions, performed in triplicate, of compound in RPMI 1640 media (Gibco). Plates were incubated at 37° C. in 5% O2, 5% CO2, and 90% N2 for 72 h. Plates were frozen, thawed, and incubated with 100 μL 2× SYBR green in lysis buffer (20 mM Tris pH 7.5, 5 mM EDTA, 0.008% Saponin, 0.08% TritonX-100) in the dark for 1 h. Fluorescence was measured with a plate reader (HTS 7000, PerkinElmer) at excitation/emission wavelengths of 485/535 nm.

[4] = inhibition of PfAtg8-PfAtg3 interaction

PfAtg8-PfAtg3 interaction (Plasmodium falciparum, UniProt Q8IJK2), sequence (Q8IJK2 whole entry C32I/C119S/C122S, form open): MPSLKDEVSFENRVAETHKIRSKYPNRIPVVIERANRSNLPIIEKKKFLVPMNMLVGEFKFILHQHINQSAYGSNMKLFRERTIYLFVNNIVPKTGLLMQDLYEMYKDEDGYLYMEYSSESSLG

Compound: CSc1ccccc1C(=O)Nc1nc(-c2ccccn2)cs1 [Compound 2, 2-methylsulfanyl-N-(4-pyridin-2-yl-1,3-thiazol-2-yl)benzamide]
LEAN (SPR) ([1]; -log (IC50)/number of heavy atoms): 0.22
IC50 ([1]; read-out: IC50 SPR, inhibition of PfAtg8-PfAtg3 interaction): 15000 nM
IC50 [2]: 200 nM

Compound: Brc1ccc(Nc2nc3ccccc3nc2Nc2ccc(Br)cc2)cc1 [Compound 6, 2-N,3-N-bis(4-bromophenyl)quinoxaline-2,3-diamine]
IC50 SPR [1, 4]: None

Compound: O=C(NCC1Cc2cccc(-c3ccncc3)c2O1)c1csc2c1CCCC2 (stereo not shown) [Compound C11]
precipitation at the concentration used in the assay [3]: either precipitated or caused protein precipitation

Compound: CN(C)c1ccc(N2C(N)=NC(N)=NC2(C)C)cc1 [Compound 5, 1-[4-(dimethylamino)phenyl]-6,6-dimethyl-1,3,5-triazine-2,4-diamine]
IC50 SPR [1, 4]: None

Compound: CCc1c(C(=O)NCc2csc(-c3cnccn3)n2)[nH]c2ccccc12 [Compound C19, 3-ethyl-N-([2-(pyrazin-2-yl)-1,3-thiazol-4-yl]methyl)-1H-indole-2-carboxamide]
precipitation at the concentration used in the assay [3]: either precipitated or caused protein precipitation

Compound: O=C(NCc1ccco1)C1CCN(S(=O)(=O)c2ccc(Br)cc2)CC1 [Compound C13, 1-(4-bromobenzene-sulfonyl)-N-(furan-2-ylmethyl)piperidine-4-carboxamide]
precipitation at the concentration used in the assay [3]: either precipitated or caused protein precipitation

Compound: CCN(CC)CCCC(C)Nc1ccnc2cc(Cl)ccc12 (stereo not shown) [chloroquine, reference compound]
IC50 (P. falciparum 3D7; 3D7): 3 ± 2 nM

IC50 (P. falciparum 3D7; 3D7, two to three experiments, read-out: average IC50): 1480 ± 600 nM
Compound: COC(OC)c1ccc(C(=O)Nc2nc(-c3ccccn3)cs2)cc1 [Compound 9, 4-(Dimethoxymethyl)-N-[4-(pyridin-2-yl)-1,3-thiazol-2-yl]benzamide]

Compound: O=C(NCc1csc(-c2cnccn2)n1)c1cc2sccc2[nH]1 [Compound C30, N-([3-(pyrazin-3-yl)-1,3-thiazol-4-yl]methyl)-4H-thieno[3,2-b]pyrrole-5-carboxamide]
precipitation at the concentration used in the assay [3]: either precipitated or caused protein precipitation

Compound: O=C(Nc1nc(-c2ccccn2)cs1)c1ccccc1Br [Compound 3, 2-bromo-N-(4-pyridin-2-yl-1,3-thiazol-2-yl)benzamide]
IC50 [2]: 1580 nM

Compound: Cc1ccc(-c2cc3c(SCC(=O)Nc4cc(C(F)(F)F)ccc4Cl)nccn3n2)cc1 [Compound 4, N-[2-chloro-5-(trifluoromethyl)phenyl]-2-[2-(4-methylphenyl)pyrazolo[1,5-a]pyrazin-4-yl]sulfanylacetamide]
IC50 SPR [1, 4]: None
